Counter-ions that a name gives are not always drawn.
Experiments:
S. pneumoniae = assay: Average MIC data, growth at serial concentrations; format: cell-based
Text: (§1) Minimum Inhibitory Concentration Data
(§2) Average MIC data with growth details in various concentration of ceftriaxone and vancomycin combination of the present invention, ceftriaxone alone and vancomycin alone with following bacteria such as MSSA, Enterococcus, S. pneumoniae, Penicillin resistant streptococcus pneumoniae, MRSA.

Enterococcus = assay: Average MIC data, growth at serial concentrations; format: cell-based
Text: as §1, §2

S. aurens = assay: Average MIC data, growth at serial concentrations; format: cell-based
Text: as §1, §2

S. aurens (MRSA) = assay: Average MIC data, growth at serial concentrations; format: cell-based
Text: as §1, §2

Streptococcus pneumoniae = assay: Average MIC data, growth at serial concentrations; format: cell-based
Text: as §1, §2

[1] = test system: penicillin- and quinolone-resistant pneumococcal mutant strain; conditions: experimental rabbit meningitis; cited from earlier work

CO/N=C(\C(=O)N[C@@H]1C(=O)N2C(C(=O)O)=C(CSc3nc(=O)c(=O)[nH]n3C)CS[C@H]12)c1csc(N)n1 [Ceftriaxone, (Z)-7-[2-(2-Aminothiazole-4-yl)-2-methoxyiminoacetamido]-3-[(2,5-dihydro-6-hydroxy-2-methyl-5-oxo-1,2,4-triazin-3-yl)thiomethyl]-3-cephem-4-carboxylic acid, disodium salt, Sesquaterhydrate]
No growth: Growth at concentration (Average MIC data) (S. pneumoniae; 0.5 μg/ml) | Growth at concentration (Average MIC data) (S. pneumoniae; 1 μg/ml) | Growth at concentration (Average MIC data) (S. pneumoniae; 2 μg/ml) | Growth at concentration (Average MIC data) (S. pneumoniae; 4 μg/ml) | Growth at concentration (Average MIC data) (S. pneumoniae; 8 μg/ml) | Growth at concentration (Average MIC data) (S. pneumoniae; 16 μg/ml) | Growth at concentration (Average MIC data) (S. pneumoniae; 32 μg/ml) | Growth at concentration (Average MIC data) (S. pneumoniae; 64 μg/ml) | Growth at concentration (Average MIC data) (S. pneumoniae; 128 μg/ml) | Growth at concentration (Average MIC data) (Enterococcus; 1 μg/ml) | Growth at concentration (Average MIC data) (Enterococcus; 2 μg/ml) | Growth at concentration (Average MIC data) (Enterococcus; 4 μg/ml) | Growth at concentration (Average MIC data) (Enterococcus; 8 μg/ml) | Growth at concentration (Average MIC data) (Enterococcus; 16 μg/ml) | Growth at concentration (Average MIC data) (Enterococcus; 32 μg/ml) | Growth at concentration (Average MIC data) (Enterococcus; 64 μg/ml) | Growth at concentration (Average MIC data) (Enterococcus; 128 μg/ml) | Growth at concentration (Average MIC data) (S. aurens; 1 μg/ml) | Growth at concentration (Average MIC data) (S. aurens; 2 μg/ml) | Growth at concentration (Average MIC data) (S. aurens; 4 μg/ml) | Growth at concentration (Average MIC data) (S. aurens; 8 μg/ml) | Growth at concentration (Average MIC data) (S. aurens; 16 μg/ml) | Growth at concentration (Average MIC data) (S. aurens; 32 μg/ml) | Growth at concentration (Average MIC data) (S. aurens; 64 μg/ml) | Growth at concentration (Average MIC data) (S. aurens; 128 μg/ml) | Growth at concentration (Average MIC data) (S. aurens (MRSA); 64 μg/ml) | Growth at concentration (Average MIC data) (S. aurens (MRSA); 128 μg/ml) | Growth at concentration (Average MIC data) (Streptococcus pneumoniae; 4 μg/ml) | Growth at concentration (Average MIC data) (Streptococcus pneumoniae; 8 μg/ml) | Growth at concentration (Average MIC data) (Streptococcus pneumoniae; 16 μg/ml) | Growth at concentration (Average MIC data) (Streptococcus pneumoniae; 32 μg/ml) | Growth at concentration (Average MIC data) (Streptococcus pneumoniae; 64 μg/ml) | Growth at concentration (Average MIC data) (Streptococcus pneumoniae; 128 μg/ml)
Growth Found: Growth at concentration (Average MIC data) (S. pneumoniae; 0.125 μg/ml) | Growth at concentration (Average MIC data) (S. pneumoniae; 0.25 μg/ml) | Growth at concentration (Average MIC data) (Enterococcus; 0.125 μg/ml) | Growth at concentration (Average MIC data) (Enterococcus; 0.25 μg/ml) | Growth at concentration (Average MIC data) (Enterococcus; 0.5 μg/ml) | Growth at concentration (Average MIC data) (S. aurens; 0.125 μg/ml) | Growth at concentration (Average MIC data) (S. aurens; 0.25 μg/ml) | Growth at concentration (Average MIC data) (S. aurens; 0.5 μg/ml) | Growth at concentration (Average MIC data) (S. aurens (MRSA); 0.125 μg/ml) | Growth at concentration (Average MIC data) (S. aurens (MRSA); 0.25 μg/ml) | Growth at concentration (Average MIC data) (S. aurens (MRSA); 0.5 μg/ml) | Growth at concentration (Average MIC data) (S. aurens (MRSA); 1 μg/ml) | Growth at concentration (Average MIC data) (S. aurens (MRSA); 2 μg/ml) | Growth at concentration (Average MIC data) (S. aurens (MRSA); 4 μg/ml) | Growth at concentration (Average MIC data) (S. aurens (MRSA); 8 μg/ml) | Growth at concentration (Average MIC data) (S. aurens (MRSA); 16 μg/ml) | Growth at concentration (Average MIC data) (S. aurens (MRSA); 32 μg/ml) | Growth at concentration (Average MIC data) (Streptococcus pneumoniae; 0.125 μg/ml) | Growth at concentration (Average MIC data) (Streptococcus pneumoniae; 0.25 μg/ml) | Growth at concentration (Average MIC data) (Streptococcus pneumoniae; 0.5 μg/ml) | Growth at concentration (Average MIC data) (Streptococcus pneumoniae; 1 μg/ml) | Growth at concentration (Average MIC data) (Streptococcus pneumoniae; 2 μg/ml)

CN[C@H](CC(C)C)C(=O)N[C@H]1C(=O)N[C@@H](CC(N)=O)C(=O)N[C@H]2C(=O)N[C@H]3C(=O)N[C@H](C(=O)N[C@H](C(=O)O)c4cc(O)cc(O)c4-c4cc3ccc4O)[C@H](O)c3ccc(c(Cl)c3)Oc3cc2cc(c3O[C@@H]2O[C@H](CO)[C@@H](O)[C@H](O)[C@H]2O[C@H]2C[C@](C)(N)[C@H](O)[C@H](C)O2)Oc2ccc(cc2Cl)[C@H]1O [Vancomycin]
No growth: Growth at concentration (Average MIC data) (S. pneumoniae; 0.5 μg/ml) | Growth at concentration (Average MIC data) (S. pneumoniae; 1 μg/ml) | Growth at concentration (Average MIC data) (S. pneumoniae; 2 μg/ml) | Growth at concentration (Average MIC data) (S. pneumoniae; 4 μg/ml) | Growth at concentration (Average MIC data) (S. pneumoniae; 8 μg/ml) | Growth at concentration (Average MIC data) (S. pneumoniae; 16 μg/ml) | Growth at concentration (Average MIC data) (S. pneumoniae; 32 μg/ml) | Growth at concentration (Average MIC data) (S. pneumoniae; 64 μg/ml) | Growth at concentration (Average MIC data) (S. pneumoniae; 128 μg/ml) | Growth at concentration (Average MIC data) (Enterococcus; 0.5 μg/ml) | Growth at concentration (Average MIC data) (Enterococcus; 1 μg/ml) | Growth at concentration (Average MIC data) (Enterococcus; 2 μg/ml) | Growth at concentration (Average MIC data) (Enterococcus; 4 μg/ml) | Growth at concentration (Average MIC data) (Enterococcus; 8 μg/ml) | Growth at concentration (Average MIC data) (Enterococcus; 16 μg/ml) | Growth at concentration (Average MIC data) (Enterococcus; 32 μg/ml) | Growth at concentration (Average MIC data) (Enterococcus; 64 μg/ml) | Growth at concentration (Average MIC data) (Enterococcus; 128 μg/ml) | Growth at concentration (Average MIC data) (S. aurens; 4 μg/ml) | Growth at concentration (Average MIC data) (S. aurens; 8 μg/ml) | Growth at concentration (Average MIC data) (S. aurens; 16 μg/ml) | Growth at concentration (Average MIC data) (S. aurens; 32 μg/ml) | Growth at concentration (Average MIC data) (S. aurens; 64 μg/ml) | Growth at concentration (Average MIC data) (S. aurens; 128 μg/ml) | Growth at concentration (Average MIC data) (S. aurens (MRSA); 4 μg/ml) | Growth at concentration (Average MIC data) (S. aurens (MRSA); 8 μg/ml) | Growth at concentration (Average MIC data) (S. aurens (MRSA); 16 μg/ml) | Growth at concentration (Average MIC data) (S. aurens (MRSA); 32 μg/ml) | Growth at concentration (Average MIC data) (S. aurens (MRSA); 64 μg/ml) | Growth at concentration (Average MIC data) (S. aurens (MRSA); 128 μg/ml) | Growth at concentration (Average MIC data) (Streptococcus pneumoniae; 1 μg/ml) | Growth at concentration (Average MIC data) (Streptococcus pneumoniae; 2 μg/ml) | Growth at concentration (Average MIC data) (Streptococcus pneumoniae; 4 μg/ml) | Growth at concentration (Average MIC data) (Streptococcus pneumoniae; 8 μg/ml) | Growth at concentration (Average MIC data) (Streptococcus pneumoniae; 16 μg/ml) | Growth at concentration (Average MIC data) (Streptococcus pneumoniae; 32 μg/ml) | Growth at concentration (Average MIC data) (Streptococcus pneumoniae; 64 μg/ml) | Growth at concentration (Average MIC data) (Streptococcus pneumoniae; 128 μg/ml)
Growth Found: Growth at concentration (Average MIC data) (S. pneumoniae; 0.125 μg/ml) | Growth at concentration (Average MIC data) (S. pneumoniae; 0.25 μg/ml) | Growth at concentration (Average MIC data) (Enterococcus; 0.125 μg/ml) | Growth at concentration (Average MIC data) (Enterococcus; 0.25 μg/ml) | Growth at concentration (Average MIC data) (S. aurens; 0.125 μg/ml) | Growth at concentration (Average MIC data) (S. aurens; 0.25 μg/ml) | Growth at concentration (Average MIC data) (S. aurens; 0.5 μg/ml) | Growth at concentration (Average MIC data) (S. aurens; 1 μg/ml) | Growth at concentration (Average MIC data) (S. aurens; 2 μg/ml) | Growth at concentration (Average MIC data) (S. aurens (MRSA); 0.125 μg/ml) | Growth at concentration (Average MIC data) (S. aurens (MRSA); 0.25 μg/ml) | Growth at concentration (Average MIC data) (S. aurens (MRSA); 0.5 μg/ml) | Growth at concentration (Average MIC data) (S. aurens (MRSA); 1 μg/ml) | Growth at concentration (Average MIC data) (S. aurens (MRSA); 2 μg/ml) | Growth at concentration (Average MIC data) (Streptococcus pneumoniae; 0.125 μg/ml) | Growth at concentration (Average MIC data) (Streptococcus pneumoniae; 0.25 μg/ml) | Growth at concentration (Average MIC data) (Streptococcus pneumoniae; 0.5 μg/ml)

CO/N=C(\C(=O)N[C@@H]1C(=O)N2C(C(=O)[O-])=C(C[N+]3(C)CCCC3)CS[C@H]12)c1csc(N)n1 [cefepime]
−0.61+/−0.24 Delta log(10) cfu/mL×h: bactericidal activity [1]
